Laboratory results taken from the kinase profiling compilation of Christmann-Franck et al. (2016).

Experiments:
Experiment in all cases: KINOMEscan competition binding
Details in all cases: compound 10.0 µM
[1] = test system: ABL1 (human), P00519 [M351T]
[2] = test system: ABL1 (human), P00519 [Y253F]
ACVR1B (human) = ACVR1B (human) (UniProt P36896)
ADCK4 (human) = ADCK4 (human) (UniProt Q96D53)
AXL (human) = AXL (human) (UniProt P30530)
BLK (human) = BLK (human) (UniProt P51451)
CAMK1 (human) = CAMK1 (human) (UniProt Q14012)
CAMK2D (human) = CAMK2D (human) (UniProt Q13557)
CDC42BPA (human) = CDC42BPA (human) (UniProt Q5VT25)
CDK11A (human) = CDK11A (human) (UniProt Q9UQ88)
CDK8 (human) = CDK8 (human) (UniProt P49336)
CDK9 (human) = CDK9 (human) (UniProt P50750)
CSK (human) = CSK (human) (UniProt P41240)
EPHA4 (human) = EPHA4 (human) (UniProt P54764)
Chain of EPHA4 (human) (P54764 whole entry, looked up): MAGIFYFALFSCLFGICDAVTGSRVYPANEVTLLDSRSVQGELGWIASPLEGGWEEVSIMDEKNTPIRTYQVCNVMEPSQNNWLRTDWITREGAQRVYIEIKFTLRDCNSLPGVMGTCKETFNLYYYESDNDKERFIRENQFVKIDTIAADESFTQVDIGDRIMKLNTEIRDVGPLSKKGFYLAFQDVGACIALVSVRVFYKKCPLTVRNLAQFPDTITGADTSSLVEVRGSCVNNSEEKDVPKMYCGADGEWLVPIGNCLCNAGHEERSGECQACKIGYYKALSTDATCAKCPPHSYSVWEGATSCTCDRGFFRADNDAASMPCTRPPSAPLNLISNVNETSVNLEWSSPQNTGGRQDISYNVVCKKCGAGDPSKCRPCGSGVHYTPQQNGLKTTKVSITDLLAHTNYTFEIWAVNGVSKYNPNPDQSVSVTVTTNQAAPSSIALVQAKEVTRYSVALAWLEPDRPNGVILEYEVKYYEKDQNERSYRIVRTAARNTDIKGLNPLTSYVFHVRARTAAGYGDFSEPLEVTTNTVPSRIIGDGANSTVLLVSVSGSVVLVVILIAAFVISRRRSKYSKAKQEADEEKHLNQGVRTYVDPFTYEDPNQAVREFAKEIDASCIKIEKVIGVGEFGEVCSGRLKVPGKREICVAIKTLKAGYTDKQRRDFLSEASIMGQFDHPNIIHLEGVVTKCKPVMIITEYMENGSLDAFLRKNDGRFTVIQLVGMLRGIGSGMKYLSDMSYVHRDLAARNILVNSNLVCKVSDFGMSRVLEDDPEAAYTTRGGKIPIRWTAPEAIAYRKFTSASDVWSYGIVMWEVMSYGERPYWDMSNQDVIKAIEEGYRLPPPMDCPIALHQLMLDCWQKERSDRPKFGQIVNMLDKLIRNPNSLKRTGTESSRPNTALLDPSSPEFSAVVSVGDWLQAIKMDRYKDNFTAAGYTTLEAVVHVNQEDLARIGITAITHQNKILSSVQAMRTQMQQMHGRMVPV

EPHB4 (human) = EPHB4 (human) (UniProt P54760)
FER (human) = FER (human) (UniProt P16591)
FGFR1 (human) = FGFR1 (human) (UniProt P11362)
FYN (human) = FYN (human) (UniProt P06241)
LATS2 (human) = LATS2 (human) (UniProt Q9NRM7)
MAP2K2 (human) = MAP2K2 (human) (UniProt P36507)
MAP3K9 (human) = MAP3K9 (human) (UniProt P80192)
Chain of MAP3K9 (human) (P80192 whole entry, looked up): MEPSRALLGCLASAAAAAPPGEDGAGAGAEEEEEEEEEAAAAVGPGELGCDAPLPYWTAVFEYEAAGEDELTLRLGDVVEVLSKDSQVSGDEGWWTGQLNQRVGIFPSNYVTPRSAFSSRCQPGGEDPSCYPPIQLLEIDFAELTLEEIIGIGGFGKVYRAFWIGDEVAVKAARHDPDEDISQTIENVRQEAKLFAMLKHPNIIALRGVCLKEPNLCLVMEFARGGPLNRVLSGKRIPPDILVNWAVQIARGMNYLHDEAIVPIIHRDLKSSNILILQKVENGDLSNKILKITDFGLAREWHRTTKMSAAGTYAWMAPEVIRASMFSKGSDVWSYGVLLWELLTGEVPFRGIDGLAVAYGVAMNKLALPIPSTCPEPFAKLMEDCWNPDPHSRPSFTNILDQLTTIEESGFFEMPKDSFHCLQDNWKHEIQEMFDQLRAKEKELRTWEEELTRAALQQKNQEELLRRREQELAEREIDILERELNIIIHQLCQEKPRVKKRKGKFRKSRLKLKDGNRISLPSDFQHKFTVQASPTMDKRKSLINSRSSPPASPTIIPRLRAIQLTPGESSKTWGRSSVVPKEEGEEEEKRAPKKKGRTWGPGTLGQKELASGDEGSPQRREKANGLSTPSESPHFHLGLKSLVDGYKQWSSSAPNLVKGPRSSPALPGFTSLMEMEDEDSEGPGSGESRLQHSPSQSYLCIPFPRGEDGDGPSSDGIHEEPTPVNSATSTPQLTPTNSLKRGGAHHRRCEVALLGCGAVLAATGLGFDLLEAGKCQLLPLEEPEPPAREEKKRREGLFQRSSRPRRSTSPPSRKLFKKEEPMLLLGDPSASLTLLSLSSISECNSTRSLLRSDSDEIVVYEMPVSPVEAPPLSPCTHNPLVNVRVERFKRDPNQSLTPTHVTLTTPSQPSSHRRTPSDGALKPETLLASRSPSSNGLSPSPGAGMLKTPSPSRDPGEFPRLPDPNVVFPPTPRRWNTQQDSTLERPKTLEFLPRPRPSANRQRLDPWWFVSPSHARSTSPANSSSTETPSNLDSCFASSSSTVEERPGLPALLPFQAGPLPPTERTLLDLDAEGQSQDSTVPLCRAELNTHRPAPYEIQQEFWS

MAPK11 (human) = MAPK11 (human) (UniProt Q15759)
MAPK9 (human) = MAPK9 (human) (UniProt P45984)
MAPKAPK2 (human) = MAPKAPK2 (human) (UniProt P49137)
Chain of MAPKAPK2 (human) (P49137 whole entry, looked up): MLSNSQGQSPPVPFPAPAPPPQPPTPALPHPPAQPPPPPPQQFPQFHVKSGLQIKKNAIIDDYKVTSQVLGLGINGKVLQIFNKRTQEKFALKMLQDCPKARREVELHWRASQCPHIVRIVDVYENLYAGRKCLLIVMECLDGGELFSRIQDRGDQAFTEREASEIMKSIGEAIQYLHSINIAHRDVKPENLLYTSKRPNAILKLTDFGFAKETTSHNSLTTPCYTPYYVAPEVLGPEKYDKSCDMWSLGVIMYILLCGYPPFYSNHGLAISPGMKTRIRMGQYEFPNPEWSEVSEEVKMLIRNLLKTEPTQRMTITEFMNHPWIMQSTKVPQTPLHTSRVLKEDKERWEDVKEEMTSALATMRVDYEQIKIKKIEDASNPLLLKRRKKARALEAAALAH

MAPKAPK5 (human) = MAPKAPK5 (human) (UniProt Q8IW41)
MARK2 (human) = MARK2 (human) (UniProt Q7KZI7)
Chain of MARK2 (human) (Q7KZI7 whole entry, looked up): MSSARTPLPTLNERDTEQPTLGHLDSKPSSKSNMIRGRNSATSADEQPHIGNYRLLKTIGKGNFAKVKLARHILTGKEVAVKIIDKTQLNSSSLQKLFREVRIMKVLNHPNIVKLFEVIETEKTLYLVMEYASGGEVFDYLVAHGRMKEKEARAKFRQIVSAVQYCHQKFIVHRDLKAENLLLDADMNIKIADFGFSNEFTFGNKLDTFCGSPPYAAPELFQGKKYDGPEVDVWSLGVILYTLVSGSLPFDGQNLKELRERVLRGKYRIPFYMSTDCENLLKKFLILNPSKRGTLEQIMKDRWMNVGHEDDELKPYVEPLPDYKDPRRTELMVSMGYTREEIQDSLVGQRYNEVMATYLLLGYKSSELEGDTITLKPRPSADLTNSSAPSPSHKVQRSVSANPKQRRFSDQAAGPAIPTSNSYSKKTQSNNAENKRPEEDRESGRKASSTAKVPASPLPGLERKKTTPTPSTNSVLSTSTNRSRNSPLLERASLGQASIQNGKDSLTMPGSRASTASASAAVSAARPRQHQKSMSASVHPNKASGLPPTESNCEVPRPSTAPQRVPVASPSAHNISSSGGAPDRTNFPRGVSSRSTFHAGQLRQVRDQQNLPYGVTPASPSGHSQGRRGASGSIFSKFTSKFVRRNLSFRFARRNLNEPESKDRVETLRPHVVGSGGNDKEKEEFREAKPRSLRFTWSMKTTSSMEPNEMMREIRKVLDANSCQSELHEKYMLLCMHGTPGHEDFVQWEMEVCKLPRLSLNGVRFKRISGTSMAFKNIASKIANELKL

PDGFRA (human) = PDGFRA (human) (UniProt P16234)
PDPK1 (human) = PDPK1 (human) (UniProt O15530)
Chain of PDPK1 (human) (O15530 whole entry, looked up): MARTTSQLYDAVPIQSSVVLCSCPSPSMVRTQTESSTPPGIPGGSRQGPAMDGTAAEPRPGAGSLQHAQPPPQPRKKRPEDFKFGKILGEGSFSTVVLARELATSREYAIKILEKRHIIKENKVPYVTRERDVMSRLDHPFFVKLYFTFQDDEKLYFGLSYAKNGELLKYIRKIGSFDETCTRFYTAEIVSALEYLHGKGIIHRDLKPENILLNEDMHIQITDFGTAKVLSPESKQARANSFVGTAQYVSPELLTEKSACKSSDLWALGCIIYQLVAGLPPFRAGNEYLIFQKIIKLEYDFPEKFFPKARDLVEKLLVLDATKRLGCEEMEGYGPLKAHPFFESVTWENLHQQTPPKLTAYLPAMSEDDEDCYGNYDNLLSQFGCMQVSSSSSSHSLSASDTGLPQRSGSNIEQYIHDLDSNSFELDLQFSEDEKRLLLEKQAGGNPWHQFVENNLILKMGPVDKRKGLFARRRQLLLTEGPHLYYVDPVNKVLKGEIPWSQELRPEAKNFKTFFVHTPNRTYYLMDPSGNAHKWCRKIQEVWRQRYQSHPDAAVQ

PIK3C2B (human) = PIK3C2B (human) (UniProt O00750)
[3] = test system: PIK3CA (human), P42336 [E545K]
PLK1 (human) = PLK1 (human) (UniProt P53350)
PRKAA1 (human) = PRKAA1 (human) (UniProt Q13131)
PRKCE (human) = PRKCE (human) (UniProt Q02156)
PRKX (human) = PRKX (human) (UniProt P51817)
[4] = test system: RET (human), P07949 [V804L]
[5] = test system: RET (human), P07949 [V804M]
RPS6KA1 KD1 (human) = RPS6KA1 KD1 (human) (UniProt Q15418)
RPS6KA3 KD1 (human) = RPS6KA3 KD1 (human) (UniProt P51812)
SLK (human) = SLK (human) (UniProt Q9H2G2)
Chain of SLK (human) (Q9H2G2 whole entry, looked up): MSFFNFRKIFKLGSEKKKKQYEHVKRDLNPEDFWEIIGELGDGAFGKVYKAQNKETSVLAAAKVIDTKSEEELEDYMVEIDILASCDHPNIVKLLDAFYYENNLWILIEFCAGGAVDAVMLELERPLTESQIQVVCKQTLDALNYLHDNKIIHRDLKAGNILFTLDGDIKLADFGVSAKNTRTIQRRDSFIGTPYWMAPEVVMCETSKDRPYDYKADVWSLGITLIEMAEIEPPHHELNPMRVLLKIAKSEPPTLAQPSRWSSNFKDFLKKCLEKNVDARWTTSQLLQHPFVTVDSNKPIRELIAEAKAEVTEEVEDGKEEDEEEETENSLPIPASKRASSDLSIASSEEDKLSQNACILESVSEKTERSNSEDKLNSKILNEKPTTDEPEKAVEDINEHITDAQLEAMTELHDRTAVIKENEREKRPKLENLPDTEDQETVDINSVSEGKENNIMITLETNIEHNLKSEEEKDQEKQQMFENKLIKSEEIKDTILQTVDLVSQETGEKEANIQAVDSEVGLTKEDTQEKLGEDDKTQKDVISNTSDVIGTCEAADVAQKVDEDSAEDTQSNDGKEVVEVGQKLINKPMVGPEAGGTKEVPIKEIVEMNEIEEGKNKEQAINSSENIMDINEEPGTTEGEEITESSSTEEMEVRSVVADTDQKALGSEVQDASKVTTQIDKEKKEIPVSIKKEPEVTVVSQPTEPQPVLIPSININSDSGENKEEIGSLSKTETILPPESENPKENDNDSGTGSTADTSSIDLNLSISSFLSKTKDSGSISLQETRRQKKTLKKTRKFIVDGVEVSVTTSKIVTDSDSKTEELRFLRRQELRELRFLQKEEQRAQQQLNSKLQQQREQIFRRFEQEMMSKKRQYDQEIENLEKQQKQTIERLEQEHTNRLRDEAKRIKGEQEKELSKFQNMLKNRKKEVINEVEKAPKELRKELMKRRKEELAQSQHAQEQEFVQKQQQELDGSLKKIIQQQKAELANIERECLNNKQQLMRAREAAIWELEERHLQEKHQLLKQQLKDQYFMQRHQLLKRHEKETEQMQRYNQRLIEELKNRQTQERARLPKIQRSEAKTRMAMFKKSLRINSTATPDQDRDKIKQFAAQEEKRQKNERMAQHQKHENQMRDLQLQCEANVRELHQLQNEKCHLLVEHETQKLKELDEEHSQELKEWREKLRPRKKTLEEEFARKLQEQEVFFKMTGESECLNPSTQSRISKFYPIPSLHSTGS

TNNI3K (human) = TNNI3K (human) (UniProt Q59H18)
WEE1 (human) = WEE1 (human) (UniProt P30291)
ZAP70 (human) = ZAP70 (human) (UniProt P43403)

CN1C(=O)c2ccccc2N(C)c2nc(Nc3ccc(N4CCC(O)CC4)cc3)ncc21
kinase still bound, per cent of control [1]: 3%
kinase still bound, per cent of control [2]: 1.9%
kinase still bound, per cent of control (ACVR1B (human)): 91%
kinase still bound, per cent of control (ADCK4 (human)): 78%
kinase still bound, per cent of control (AXL (human)): 88%
kinase still bound, per cent of control (BLK (human)): 12%
kinase still bound, per cent of control (CAMK1 (human)): 100%
kinase still bound, per cent of control (CAMK2D (human)): 88%
kinase still bound, per cent of control (CDC42BPA (human)): 90%
kinase still bound, per cent of control (CDK11A (human)): 100%
kinase still bound, per cent of control (CDK8 (human)): 100%
kinase still bound, per cent of control (CDK9 (human)): 100%
kinase still bound, per cent of control (CSK (human)): 91%
kinase still bound, per cent of control (EPHA4 (human)): 97%
kinase still bound, per cent of control (EPHB4 (human)): 100%
kinase still bound, per cent of control (FER (human)): 100%
kinase still bound, per cent of control (FGFR1 (human)): 61%
kinase still bound, per cent of control (FYN (human)): 35%
kinase still bound, per cent of control (LATS2 (human)): 100%
kinase still bound, per cent of control (MAP2K2 (human)): 100%
kinase still bound, per cent of control (MAP3K9 (human)): 91%
kinase still bound, per cent of control (MAPK11 (human)): 88%
kinase still bound, per cent of control (MAPK9 (human)): 100%
kinase still bound, per cent of control (MAPKAPK2 (human)): 100%
kinase still bound, per cent of control (MAPKAPK5 (human)): 92%
kinase still bound, per cent of control (MARK2 (human)): 51%
kinase still bound, per cent of control (PDGFRA (human)): 100%
kinase still bound, per cent of control (PDPK1 (human)): 97%
kinase still bound, per cent of control (PIK3C2B (human)): 89%
kinase still bound, per cent of control [3]: 100%
kinase still bound, per cent of control (PLK1 (human)): 50%
kinase still bound, per cent of control (PRKAA1 (human)): 17%
kinase still bound, per cent of control (PRKCE (human)): 99%
kinase still bound, per cent of control (PRKX (human)): 93%
kinase still bound, per cent of control [4]: 1.7%
kinase still bound, per cent of control [5]: 3%
kinase still bound, per cent of control (RPS6KA1 KD1 (human)): 66%
kinase still bound, per cent of control (RPS6KA3 KD1 (human)): 85%
kinase still bound, per cent of control (SLK (human)): 100%
kinase still bound, per cent of control (TNNI3K (human)): 100%
kinase still bound, per cent of control (WEE1 (human)): 100%
kinase still bound, per cent of control (ZAP70 (human)): 87%

CN1C(=O)c2ccccc2N(C)c2nc(NS(=O)(=O)c3ccc(N)cc3)ncc21
kinase still bound, per cent of control [1]: 96%
kinase still bound, per cent of control [2]: 100%
kinase still bound, per cent of control (ACVR1B (human)): 100%
kinase still bound, per cent of control (ADCK4 (human)): 91%
kinase still bound, per cent of control (AXL (human)): 100%
kinase still bound, per cent of control (BLK (human)): 100%
kinase still bound, per cent of control (CAMK1 (human)): 100%
kinase still bound, per cent of control (CAMK2D (human)): 100%
kinase still bound, per cent of control (CDC42BPA (human)): 90%
kinase still bound, per cent of control (CDK11A (human)): 99%
kinase still bound, per cent of control (CDK8 (human)): 100%
kinase still bound, per cent of control (CDK9 (human)): 100%
kinase still bound, per cent of control (CSK (human)): 100%
kinase still bound, per cent of control (EPHA4 (human)): 100%
kinase still bound, per cent of control (EPHB4 (human)): 100%
kinase still bound, per cent of control (FER (human)): 62%
kinase still bound, per cent of control (FGFR1 (human)): 100%
kinase still bound, per cent of control (FYN (human)): 100%
kinase still bound, per cent of control (LATS2 (human)): 100%
kinase still bound, per cent of control (MAP2K2 (human)): 100%
kinase still bound, per cent of control (MAP3K9 (human)): 100%
kinase still bound, per cent of control (MAPK11 (human)): 100%
kinase still bound, per cent of control (MAPK9 (human)): 100%
kinase still bound, per cent of control (MAPKAPK2 (human)): 96%
kinase still bound, per cent of control (MAPKAPK5 (human)): 100%
kinase still bound, per cent of control (MARK2 (human)): 100%
kinase still bound, per cent of control (PDGFRA (human)): 100%
kinase still bound, per cent of control (PDPK1 (human)): 100%
kinase still bound, per cent of control (PIK3C2B (human)): 97%
kinase still bound, per cent of control [3]: 91%
kinase still bound, per cent of control (PLK1 (human)): 100%
kinase still bound, per cent of control (PRKAA1 (human)): 100%
kinase still bound, per cent of control (PRKCE (human)): 100%
kinase still bound, per cent of control (PRKX (human)): 94%
kinase still bound, per cent of control [4]: 100%
kinase still bound, per cent of control [5]: 100%
kinase still bound, per cent of control (RPS6KA1 KD1 (human)): 100%
kinase still bound, per cent of control (RPS6KA3 KD1 (human)): 100%
kinase still bound, per cent of control (SLK (human)): 100%
kinase still bound, per cent of control (TNNI3K (human)): 100%
kinase still bound, per cent of control (WEE1 (human)): 99%
kinase still bound, per cent of control (ZAP70 (human)): 100%
